Measurements: patent US7629150B2, “Transformed cell harboring DNA or RNA encoding sugar chain synthesizing agent having β1,3-N-acetylglucosaminyltransferase activity” (Kyowa Hakko Kirin Co., Ltd., priority 2000, dated 2009)

Molecular target: T1, G6 polypeptide (Homo sapiens, UniProt Q9BYG0)
T1 construct: In order to obtain a DNA encoding the full-length G6 polypeptide, PCR was carried out; expressed in transfected cells; Triton X-100 cell extract
T1 sequence (Q9BYG0 1-378): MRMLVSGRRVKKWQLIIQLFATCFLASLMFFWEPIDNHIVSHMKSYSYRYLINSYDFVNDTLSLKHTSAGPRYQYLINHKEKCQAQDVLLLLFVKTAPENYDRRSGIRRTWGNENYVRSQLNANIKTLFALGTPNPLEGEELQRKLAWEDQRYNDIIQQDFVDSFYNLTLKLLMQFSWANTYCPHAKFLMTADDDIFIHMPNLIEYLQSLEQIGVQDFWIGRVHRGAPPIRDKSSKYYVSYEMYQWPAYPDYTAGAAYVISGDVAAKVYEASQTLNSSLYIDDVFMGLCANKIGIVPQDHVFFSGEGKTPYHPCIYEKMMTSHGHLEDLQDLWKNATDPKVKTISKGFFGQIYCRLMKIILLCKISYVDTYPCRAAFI
Assay: β1,3-N-acetylglucosaminyltransferase activity of cell extract of Namalwa cells transfected with pAMo-G6, 2-aminobenzamide-labeled oligosaccharide substrates
Format: biochemical
Conditions: cell extract (20 μg protein) of pAMo-G6-transfected Namalwa cells; 2-aminobenzamide-labeled substrate; 37° C., 16 hours
Description: The transformant cells (about 2×10^7 cells) obtained in Example 6(1) were put into a microtube (1.5 ml: manufactured by Eppendorf), and the cells were collected by centrifugation (550×g, 7 minutes). The cells were washed with 0.9 ml of PBS, the washed cells were suspended in a solution (100 μl) containing 20 mmol/l HEPES (pH 7.2) and 2% Triton X-100 and then the cells were disrupted using a sonicator (Bioruptor; manufactured by COSMO BIO). After the mixture was allowed to stand at 4° C. for 1 hour, the supernatant was obtained by centrifugation (550×g, 7 minutes). The supernatant was used as an enzyme sample.
A β1,3-N-acetylglucosaminyltransferase activity was measured by using this enzyme sample and 2-aminobenzamide-labeled sugar chain substrates. […]
The activity measurement was carried out using known methods [FEBS, 462, 289 (1999), J. Biol. Chem., 269, 14730-14737 (1994), J. Biol. Chem., 267, 23507 (1992), J. Biol. Chem., 267, 2994 (1992)]. Specifically, the reaction was carried out at 37° C. for 16 hours in 20 μl of an assay solution [150 mmol/l MOPS (pH 7.5), 50 mmol/l UDP-GlcNAc (manufactured by SIGMA), 20 mmol/l sodium cacodylate (pH 7.2), 0.4% Triton CF-54, 10 mmol/l MnCl2, 15 mmol/l 2-aminobenzamide-labeled sugar chain substrate, the above cell extract (20 μg as protein)], and then the product was detected by high performance liquid chromatography (HPLC). […]

Q: For `CC(=O)N[C@H]1[C@H](O[C@H]2[C@@H](O)[C@@H](CO)O[C@@H](O[C@H]3[C@H](O)[C@@H](O)C(O)O[C@@H]3CO)[C@@H]2O)O[C@H](CO)[C@@H](O[C@@H]2O[C@H](CO)[C@H](O)[C@H](O)[C@H]2O)[C@@H]1O` (mixture of isomers) [LNnT, lacto-N-neotetraose], which “ratio of the substrate converted into the product” value is on record?
A: 6.11%

Q: For `CC(=O)N[C@H]1[C@H](O[C@H]2[C@@H](O)[C@@H](CO)O[C@@H](O[C@H]3[C@H](O)[C@@H](NC(C)=O)C(O)O[C@@H]3CO)[C@@H]2O)O[C@H](CO)[C@@H](O[C@@H]2O[C@H](CO)[C@H](O)[C@H](O)[C@H]2O)[C@@H]1O` (some centres unmarked) [2LN, Galβ1-4GlcNAcβ1-3Galβ1-4GlcNAc], which “ratio of the substrate converted into the product” value is on record?
A: 3.95%
